Values of other authors as cited in patent US20240115517A1, “COMPOSITIONS AND METHODS FOR IMPROVING SKIN BARRIER” (LYCORED LTD., priority 0001, published 2024).

Columns and labels:
[1] = 4 mg/day, 9 weeks

## CC1=C(/C=C/C(C)=C/C=C/C(C)=C/C=C/C=C(C)/C=C/C=C(C)/C=C/C2=C(C)C(=O)[C@@H](O)CC2(C)C)C(C)(C)C[C@H](O)C1=O [astaxanthin, Astaxanthin]
36 male subjects; 6 mg per day, 6 weeks
  TEWL compared to controls: significantly reduced
36 male subjects; astaxanthin supplementation
  minor wrinkles, age spot size, elasticity, hydration: improvements
[1]
  minimal erythema dose of UV: increase
[1]; after UV irradiation
  increase of TEWL at the site of irradiation versus control group: significantly less
